# Measured values: patent US12622919B2, “Methods for treating hypervirulent Klebsiella pneumoniae infection” (priority 2023, dated 2026)
# Legend:
# IL-6 = experiment: Serum IL-6 by ELISA in 17ZR101-infected mice; type: in vivo, C57BL6 mice; conditions: 17ZR101-infected mice treated with ASA; untreated 587.965
# Procedure: (§1) The serum level of IL-6 of the test animals was measured by using the IL-6 Mouse Uncoated ELISA Kit (Thermo fisher scientific, 88-7064-88), IL-1β level by IL-1 beta Mouse Uncoated ELISA Kit (Thermo fisher scientific, 88-7013-86) and that of IFN-γ was measured by using the IFN gamma Mouse Uncoated ELISA Kit (Thermo fisher scientific, 88-7314-88) according to instructions of the manufacturer.
# (§2) In ASA, NPXS, CTX, AzA, CsA, DXMS, and F-ara treatment experiment, mice challenged by 17ZR101 were given intraperitoneally 100 mg kg^−1 ASA, 50 mg kg^−1 NPXS, 150 mg kg^−1 CTX, 200 mg kg^−1 AzA, 20 mg kg^−1 CsA, 10 mg kg^−1 DXMS and 40 mg kg^−1 F-ara at 3 hpi, another group treated with an equal volume of PBS or 200 μL of corn oil solution was included as a control group. In ASA and CAZ/AVI combination treatment experiment, mice were given intraperitoneally 100 mg kg^−1 ASA plus 8 mg kg^−1 CAZ and 4 mg kg^−1 AVI or 8 mg kg^−1 CAZ and 4 mg kg^−1 AVI at 1 hpi. The health status and weight of all mice were observed and recorded.
# hvKp strain 17ZR101 [1] = experiment: Bacteria burden in organs, 10^7 CFU hvKp; type: in vivo, C57BL6 mice; conditions: 4 hpi
# Procedure: Ten-fold dilutions of tissue homogenate were prepared and spread onto MacConkey agar plates containing 2 μg mL^−1 cefotaxime to determine the bacterial load in different organs of the infected animals. To determine the number of intracellular bacteria, cells prepared for flow cytometry from lungs and spleens were collected and then incubated with 300 μg mL^−1 amikacin to kill the extracellular bacteria. The number of total and intracellular bacteria was counted and presented as the number of CFU g^−1 tissue.
# as §2
# [2] = tested on: Stat1 and STAT1-regulated chemokines, M1 markers, Cox-1, Cox-2; experiment: RNA-Seq / qPCR of lung cells of 17ZR101-infected mice; type: in vivo, C57BL6 mice
# Procedure: RNA was extracted from lung samples by homogenization in TRIzol reagent (15596026, Thermo Fisher Scientific), followed by chloroform extraction and isopropanol precipitation. The extracted RNA was reverse-transcribed into cDNA by using a SuperScript® III First-Strand Synthesis SuperMix kit (11752050, ThermoFisher Scientific). Real-time quantitative PCR was performed by using a QuantStudio™ 7 Pro Real-Time PCR System, following the manufacturer's instructions. cDNA samples were tested in duplicates, and the relative amount of mRNA in different samples (Gapdh, Il1b, Ifng, Cxcl2, Cxcl10, Ifna, Ifnb, Ifnar1, Stat1, Hmgb1, Il-6, Myd88, and Tlr4) was determined by the comparative threshold cycle (ΔΔCT) method, using the glyceraldehyde-3-phosphate dehydrogenase gene (Gapdh) for normalization.
# Total RNA was extracted from lung samples by homogenization in TRIzol reagent, followed by chloroform extraction and isopropanol precipitation. DNA was removed by DNase treatment (TURBO DNA-Free™ Kit). RNA samples were sent to Novogene (HK) Company Limited for sequencing. Routine procedures of mRNA purification and library generation were performed by Novogene. Sequencing reads alignment was performed by using HISAT2. Count aligned reads and quantification were calculated based on exon regions using FeatureCounts. […] Gene Set Enrichment Analysis was performed for gene ontology enrichment analysis. The raw RNA-seq data has been deposited in NCBI database under the accession number PRJNA851242.
# as §2
# [3] = tested on: F4/80+ cells (IMs), neutrophils in lungs; experiment: Flow cytometry of lung cells, 10^4 CFU 17ZR101 sepsis model; type: in vivo, C57BL6 mice; conditions: ASA at 3 hpi
# Procedure: (§3) Cells collected from different tissues of the test animals were subjected to flow cytometry analysis as described previously^4. Cells from spleens were obtained by mashing the organ through a 70-μm cell strainer and collected in a tube containing RPMI 1640 medium supplemented with 5% fetal bovine serum. To prepare lung cells, lung tissues were excised and incubated in HBSS containing 1×HEPES and Collagenase type I. The tissue fragments were forced through a 70-μm strainer as described above. Red blood cells were lysed with ACK lysing buffer.
# Dead cells were excluded from the analysis by propidium iodide (Sigma-Aldrich Corporation, P4170-1G) or ghost Dye™ violet 510 (Tonbo Biosciences, 13-0870-T100) staining in all flow cytometry experiments. Fluorescently labeled mAbs against mouse CD45, CD11b, CD206, CD80, Ly6G, CD11c, SiglecF, Ly6C and appropriate isotype controls were obtained from Biolegend. For intracellular cytokine measurement, cells were incubated with Cell Activation Cocktail (BioLegend, 423303) at 37° C. in the dark for 4 h. Anti-IFN-γ-PE antibody (eBioscience, 12-7177-81) was used to determine intracellular expression of IFN-γ. For p-STAT1 measurement, the cells were fixed with IC fixation buffer (eBioscience, 00-8222-49) for 30 min and then suspended in 1 mL of methanol to permeabilize the cell membrane, left to stand for 10 min on ice. At the time of p-STAT1 measurement, the cell suspensions were washed with FACS buffer and then stained with PE-anti-STAT1 Phospho antibody (Biolegend, 686404). […] The acquired data were analyzed by the FlowJo software (Version 10.0.7, Treestar, Palo Alto, CA).
# as §2, with “In ASA and CAZ/AVI combination treatment experiment, mice were given intraperitoneally 100 mg kg^−1 ASA plus 8 mg kg^−1 CAZ and 4 mg kg^−1 AVI or 8 mg kg^−1 CAZ and 4 mg kg^−1 AVI at 1 hpi.” left out
# [4] = tested on: F4/80+ cells and Ly6G+ cells in lungs; experiment: Flow cytometry of lung cells at 4 hpi, 10^7 CFU hvKp; type: in vivo, C57BL6 mice
# Procedure: as §3
# Dead cells were excluded from the analysis by propidium iodide (Sigma-Aldrich Corporation, P4170-1G) or ghost Dye™ violet 510 (Tonbo Biosciences, 13-0870-T100) staining in all flow cytometry experiments. […] The acquired data were analyzed by the FlowJo software (Version 10.0.7, Treestar, Palo Alto, CA).
# as §2, with “In ASA and CAZ/AVI combination treatment experiment, mice were given intraperitoneally 100 mg kg^−1 ASA plus 8 mg kg^−1 CAZ and 4 mg kg^−1 AVI or 8 mg kg^−1 CAZ and 4 mg kg^−1 AVI at 1 hpi.” left out
# hvKp strain 17ZR101 [5] = experiment: Mouse sepsis model, ~10^4 CFU 17ZR101, drug at 3 hpi: survival, body weight, spleen weight; type: in vivo, C57BL6 mice
# Procedure: All animal experiments were approved by the Animal Ethics Committee of the City University of Hong Kong and followed the guidelines of the Institutional Laboratory Animal Research Unit. Six- to eight-weeks-old animals of both sexes were used in this study. For the sepsis model, mice were intravenously injected with ˜10^4 colony forming units (CFU) of the test stain resuspended in 200 μL PBS. For the pneumonia model, mice were anesthetized by inhaling isoflurane, and ˜10^6 CFU of the strain resuspended 10 μL PBS were dripped into the mouse's nasal cavity. The heads of the mice were hold upright for 30 s afterwards.
# as §2
# IFN-γ = experiment: Serum IFN-γ by ELISA in 17ZR101-infected mice; type: in vivo, C57BL6 mice; conditions: 17ZR101-infected mice treated with F-ara; untreated 2742.872
# Procedure: as §1, §2
# [6] = tested on: K. pneumoniae strain 17ZR101 (K2 hvKp clinical strain); experiment: Antibiotic susceptibility test (microdilution), strain 17ZR101; type: cell-based, Klebsiella pneumoniae; conditions: CLSI
# Procedure: (§4) The antimicrobial susceptibility of the two Klebsiella strains was determined by the microdilution method according to the guidelines recommended by the Clinical and Laboratory Standards Institute^2. Escherichia coli strain ATCC 25922 was included as a quality control strain. All tests were performed in duplicate, and each test included three biological replicates.
# [7] = tested on: K. pneumoniae strain HKU1 (clinical cKp strain); experiment: Antibiotic susceptibility test (microdilution), strain HKU1; type: cell-based, Klebsiella pneumoniae; conditions: CLSI
# Procedure: as §4
# [8] = RNA-Seq lung cells, 17ZR101+ASA vs 17ZR101, unit not given
compound,measurement,setting,value
"CC(=O)Oc1ccccc1C(=O)O [ASA, acetylsalicylic acid]",serum IL-6 production,IL-6,57.964 pg/mL
same,bacteria burden in various organs,hvKp strain 17ZR101 [1],without contributing to bacteria clearance
same,expression level of M1 macrophage markers,"[2]; RNA-Seq and qPCR, lung cells, ASA",decrease in expression level of M1 macrophage markers
same,Cxcl9 expression change,[2]; [8],−2.118
same,Cxcl10 expression change,[2]; [8],−3.590
same,Cxcl11 expression change,[2]; [8],−2.098
same,Stat1 expression change,"[2]; RNA-Seq lung cells, 17ZR101+ASA vs 17ZR101, unit not printed here (Log 2 fold change)",−1.056
same,Cox-1 and Cox-2 expression at the mRNA level,[2]; upon ASA administration,no significant difference
same,F4/80+ cells infiltration into the lungs,[3],suppressed F4/80^+ cells infiltration into the lungs
same,levels of neutrophils in the lungs,[3],slight decrease
same,M1 macrophage polarization,[3]; CD80 MFI,able to inhibit M1 macrophage polarization
same,F4/80+ cells infiltration in lungs,[4],could suppress F4/80^+ cells infiltration
same,Ly6G+ cells in lungs,[4],not significantly
same,spleen/body weight ratio,"hvKp strain 17ZR101 [5]; 12 hpi, ASA 100 mg kg^−1 i.p. at 3 hpi, untreated 0.863%",0.495%
same,bodyweight loss,"hvKp strain 17ZR101 [5]; 12 hpi, ASA 100 mg kg^−1 i.p. at 3 hpi, untreated 7.206%",2.076%
same,mice protected (survival),"hvKp strain 17ZR101 [5]; 17ZR101 infection, 100 mg kg^−1 ASA i.p. at 3 hpi, at 48 hpi",100%
"Nc1nc(F)nc2c1ncn2[C@@H]1O[C@H](CO)[C@@H](O)[C@@H]1O [F-ara, Fludarabine]",serum IFN-γ level,IFN-γ,445.133 pg/mL
same,mice protected from death,"hvKp strain 17ZR101 [5]; 17ZR101 infection, 40 mg kg^−1 F-ara i.p. at 3 hpi, within 48 h",50%
NCC[C@H](O)C(=O)N[C@@H]1C[C@H](N)[C@@H](O[C@H]2O[C@H](CN)[C@@H](O)[C@H](O)[C@H]2O)[C@H](O)[C@H]1O[C@H]1O[C@H](CO)[C@@H](O)[C@H](N)[C@H]1O [amikacin],antimicrobial susceptibility,[6],susceptible
same,antimicrobial susceptibility,[7],susceptible
CO/N=C(\C(=O)N[C@@H]1C(=O)N2C(C(=O)O)=C(COC(C)=O)CS[C@H]12)c1csc(N)n1 [cefotaxime],antimicrobial susceptibility,[6],resistant
same,antimicrobial susceptibility,[7],resistant
CC(C)(O/N=C(\C(=O)N[C@@H]1C(=O)N2C(C(=O)[O-])=C(C[n+]3ccccc3)CS[C@H]12)c1csc(N)n1)C(=O)O [ceftazidime],antimicrobial susceptibility,[6],resistant
same,antimicrobial susceptibility,[7],resistant
O=P1(N(CCCl)CCCl)NCCCO1 (stereo not shown) [cyclophosphamide],protective effect (survival),"hvKp strain 17ZR101 [5]; 17ZR101 infection, 150 mg kg^−1 CTX i.p. at 3 hpi",did not exhibit any protective effect
C[C@@H](O)[C@H]1C(=O)N2C(C(=O)O)=C(S[C@@H]3CN[C@H](C(=O)N(C)C)C3)[C@H](C)[C@H]12 [meropenem],antimicrobial susceptibility,[6],resistant
same,antimicrobial susceptibility,[7],resistant
CN(C)c1cc(NC(=O)CNC(C)(C)C)c(O)c2c1C[C@H]1C[C@H]3[C@H](N(C)C)C(O)=C(C(N)=O)C(=O)[C@@]3(O)C(O)=C1C2=O [tigecycline],antimicrobial susceptibility,[6],susceptible
same,antimicrobial susceptibility,[7],susceptible
polymyxin B,antimicrobial susceptibility,[6],susceptible
same,antimicrobial susceptibility,[7],susceptible
